# Calls of active or inactive are those of the source.
# Legend:
# Escherichia coli = assay: microbe, parasite or virus in culture
# [1] = molecular target: T1, Peroxisome proliferator-activated receptor gamma/Nuclear receptor coactivator 2 (Homo sapiens, UniProt P37231); assay: TR-FRET dose response biochemical High Throughput Screening assay for agonists of the steroid receptor coactivator 2 (SRC-2) recruitment by the peroxisome proliferator-activated receptor gamma (PPAR gamma): non-selective agonists. [Related pubchem assays: 1297, 1032 ]; type: functional
# [2] = molecular target: T2, Peroxisome proliferator-activated receptor gamma/Nuclear receptor coactivator 1 (Homo sapiens, UniProt P37231); assay: TR-FRET dose response biochemical High Throughput Screening assay for agonists of the steroid receptor coactivator 1 (SRC-1) recruitment by the peroxisome proliferator-activated receptor gamma (PPAR gamma): non-selective agonists. [Related pubchem assays (depositor defined):AID1300, AID1808, AID504735, AID631]; type: protein assay
# [3] = molecular target: T3, Peroxisome proliferator-activated receptor gamma/Nuclear receptor coactivator 3 (Homo sapiens, UniProt P37231); assay: TR-FRET dose response biochemical High Throughput Screening assay for agonists of the steroid receptor coactivator 3 (SRC-3) recruitment by the peroxisome proliferator-activated receptor gamma (PPAR gamma): non-selective agonists. [Related pubchem assays: 1301 (Confirmation screen.), 1048 (Primary screen.)]; type: functional
# [4] = molecular target: T4, High affinity choline transporter 1 (Homo sapiens, UniProt Q9GZV3); assay: CHT inhibitors, dose response, cell-based, 5-point CRC, membrane potential dye (AID 504840); type: functional
# T4 sequence (Q9GZV3 whole entry): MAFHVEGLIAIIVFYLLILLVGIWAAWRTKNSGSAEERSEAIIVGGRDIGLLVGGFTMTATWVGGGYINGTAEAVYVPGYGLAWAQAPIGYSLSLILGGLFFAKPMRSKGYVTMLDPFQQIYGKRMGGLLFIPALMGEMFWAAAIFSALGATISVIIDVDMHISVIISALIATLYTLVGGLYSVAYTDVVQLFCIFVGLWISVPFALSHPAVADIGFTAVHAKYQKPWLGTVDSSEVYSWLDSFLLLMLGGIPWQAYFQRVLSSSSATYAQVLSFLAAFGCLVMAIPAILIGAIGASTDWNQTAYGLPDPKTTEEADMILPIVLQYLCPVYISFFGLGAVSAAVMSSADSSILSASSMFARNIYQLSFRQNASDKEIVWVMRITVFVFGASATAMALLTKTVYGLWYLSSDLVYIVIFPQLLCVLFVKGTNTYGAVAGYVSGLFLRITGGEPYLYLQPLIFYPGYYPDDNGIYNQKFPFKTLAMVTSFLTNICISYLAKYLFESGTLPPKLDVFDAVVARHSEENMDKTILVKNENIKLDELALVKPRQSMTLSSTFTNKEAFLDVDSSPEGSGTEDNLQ
# [5] = molecular target: T4, High affinity choline transporter 1; assay: CHT inhibitors, dose response, cell-based, 10-point CRC, membrane potential dye (AID 588401); type: functional;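 further: membrane potential dye fluorescence of choline-evoked depolarization via CHT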
# [6] = molecular target: T5, Ubiquitin-conjugating enzyme E2 N (Homo sapiens, UniProt P61088); type: functional
# T5 sequence (P61088 whole entry): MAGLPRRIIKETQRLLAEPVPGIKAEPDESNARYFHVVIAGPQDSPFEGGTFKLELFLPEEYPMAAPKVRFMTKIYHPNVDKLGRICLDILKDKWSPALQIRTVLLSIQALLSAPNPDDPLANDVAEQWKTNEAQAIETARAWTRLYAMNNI
# [7] = molecular target: T5, Ubiquitin-conjugating enzyme E2 N; type: functional; remark: listed apart in the source
# Prothrombin = Prothrombin (Bos taurus, UniProt P00735); assay: thrombin inhibition, dose response, biochemical, fluorescence polarization, uHTS hits (AID 602369); type: functional
# [8] = molecular target: T6, Apoptotic protease-activating factor 1 (Homo sapiens, UniProt O14727); type: functional
# T6 sequence (O14727 whole entry): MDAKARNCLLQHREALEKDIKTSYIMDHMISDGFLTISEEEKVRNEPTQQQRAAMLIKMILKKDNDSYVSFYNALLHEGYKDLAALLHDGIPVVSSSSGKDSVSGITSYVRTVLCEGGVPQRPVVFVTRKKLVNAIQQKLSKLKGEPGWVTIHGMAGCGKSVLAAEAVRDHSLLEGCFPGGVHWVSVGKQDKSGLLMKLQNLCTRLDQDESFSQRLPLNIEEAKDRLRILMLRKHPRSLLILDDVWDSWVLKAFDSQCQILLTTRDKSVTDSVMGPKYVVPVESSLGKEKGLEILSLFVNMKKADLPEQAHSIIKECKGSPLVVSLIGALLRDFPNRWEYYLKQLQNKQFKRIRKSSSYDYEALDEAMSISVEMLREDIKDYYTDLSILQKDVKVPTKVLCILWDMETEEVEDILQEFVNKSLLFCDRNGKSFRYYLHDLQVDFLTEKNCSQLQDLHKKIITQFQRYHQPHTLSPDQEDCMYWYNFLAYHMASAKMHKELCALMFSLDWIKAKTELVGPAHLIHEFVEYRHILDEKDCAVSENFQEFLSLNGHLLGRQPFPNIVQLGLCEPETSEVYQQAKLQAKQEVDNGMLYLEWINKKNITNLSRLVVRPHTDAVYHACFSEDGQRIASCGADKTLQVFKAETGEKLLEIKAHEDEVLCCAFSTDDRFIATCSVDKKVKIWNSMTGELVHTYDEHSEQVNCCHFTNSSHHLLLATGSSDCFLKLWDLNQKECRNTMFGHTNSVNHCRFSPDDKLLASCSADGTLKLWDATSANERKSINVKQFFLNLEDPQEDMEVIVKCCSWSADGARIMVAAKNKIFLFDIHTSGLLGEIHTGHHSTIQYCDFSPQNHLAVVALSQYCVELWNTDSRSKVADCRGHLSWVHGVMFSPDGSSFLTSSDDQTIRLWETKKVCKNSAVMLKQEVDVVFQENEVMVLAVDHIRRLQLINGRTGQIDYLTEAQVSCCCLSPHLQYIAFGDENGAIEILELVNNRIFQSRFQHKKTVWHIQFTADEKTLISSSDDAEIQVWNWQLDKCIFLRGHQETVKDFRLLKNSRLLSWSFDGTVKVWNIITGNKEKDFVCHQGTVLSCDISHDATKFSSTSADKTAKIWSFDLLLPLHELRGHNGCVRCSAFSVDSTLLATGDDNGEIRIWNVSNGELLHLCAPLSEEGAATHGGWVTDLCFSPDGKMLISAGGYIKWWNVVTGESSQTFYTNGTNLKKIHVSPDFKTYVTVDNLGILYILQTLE
# Bcl-2-related protein A1 = molecular target: T7, Bcl-2-related protein A1 (Mus musculus, UniProt Q07440); type: functional;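 further: confirmatory dose–response counterscreen on Bfl-1, used to check hits from a UBC13 polyubiquitin inhibitor campaign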
# T7 sequence (Q07440 whole entry): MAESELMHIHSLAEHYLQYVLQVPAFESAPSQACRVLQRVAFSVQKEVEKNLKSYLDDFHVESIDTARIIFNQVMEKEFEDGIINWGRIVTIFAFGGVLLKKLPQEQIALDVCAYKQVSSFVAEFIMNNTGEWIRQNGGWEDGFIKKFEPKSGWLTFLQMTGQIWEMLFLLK
# [9] = molecular target: 72 kDa type IV collagenase (Homo sapiens, UniProt P08253); assay: Dose Response validation of uHTS RPN11 inhibitor hits using a MMP-2 Fluorescence assay.; type: functional
# [10] = molecular target: 26S proteasome non-ATPase regulatory subunit 14 (Homo sapiens, UniProt O00487); assay: inhibition of proteasome subunit RPN11 – biochemical, fluorescence polarization, uHTS hits, confirmation (AID 602368); type: functional
# [11] = molecular target: Ras and Rab interactor 1/Tyrosine-protein kinase ABL1 (Homo sapiens, UniProt P00519+Q13671); type: functional;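 further: biochemical TR-FRET dose-response test measuring inhibition of binding between Rin1 and Abl proteins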
# Streptococcus = assay: Group A Streptococcus viability loss, dose response, counter-screen for streptokinase expression inhibitor project, luminescence, BacTiterGlo (AID 1915); type: functional, organism-based;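 further: potency for reduction of bacterial viability or growth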
# [12] = test system: Streptococcus sp. 'group A'; assay: growth inhibition of control SK(-) GAS strain, dose response, counter-screen for streptokinase expression inhibitor project, luminescence, kanamycin, BacTiterGlo, confirmation (AID 1900); type: functional, organism-based
# Estrogen receptor beta = Estrogen receptor beta (Homo sapiens, UniProt Q92731);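 further: recombinant ER-beta bound to coactivator SRC1 peptide in presence of estradiol agonist; inhibitors block coactivator peptide binding and lower the FRET signal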
# [13] = molecular target: T1, Peroxisome proliferator-activated receptor gamma/Nuclear receptor coactivator 2; type: functional
# [14] = molecular target: T2, Peroxisome proliferator-activated receptor gamma/Nuclear receptor coactivator 1; type: functional
# [15] = molecular target: T3, Peroxisome proliferator-activated receptor gamma/Nuclear receptor coactivator 3; type: functional
# [16] = molecular target: Heat shock protein HSP 90-alpha (Homo sapiens, UniProt P07900); type: functional, organism-based
# H9c2 = assay: cells; type: functional, cell-based; settings: Rattus norvegicus, H9c2, Myocardium;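 further: confirmatory concentration-response retest of ultra-high-throughput screening hits for modulation of myocardial damage; cell death induced by hydrogen peroxide oxidative stress; compound pretreatment for 60 min then peroxide exposure for 2 h; potency is for protecting the cells against peroxide damage rather than for killing them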
# [17] = intracellular Trypanosoma cruzi inhibitors in host cells – cell-based, plate reader, cherry-pick samples, set 3, dose response (AID 651818); type: functional;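 further: compounds incubated with infected cells for about four days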
# [18] = molecular target: T8, Long-chain-fatty-acid--AMP ligase FadD28 (Mycobacterium tuberculosis, UniProt P9WQ59); assay: Fluorescence polarization aasay to screen for inhibitors that compete for the binding of FadD28 to a bisubstrate Measured in Biochemical System Using Plate Reader - 2147-01_Inhibitor_Dose_CherryPick_Activity.; type: functional, Mycobacterium tuberculosis H37Rv
# T8 sequence (P9WQ59 whole entry): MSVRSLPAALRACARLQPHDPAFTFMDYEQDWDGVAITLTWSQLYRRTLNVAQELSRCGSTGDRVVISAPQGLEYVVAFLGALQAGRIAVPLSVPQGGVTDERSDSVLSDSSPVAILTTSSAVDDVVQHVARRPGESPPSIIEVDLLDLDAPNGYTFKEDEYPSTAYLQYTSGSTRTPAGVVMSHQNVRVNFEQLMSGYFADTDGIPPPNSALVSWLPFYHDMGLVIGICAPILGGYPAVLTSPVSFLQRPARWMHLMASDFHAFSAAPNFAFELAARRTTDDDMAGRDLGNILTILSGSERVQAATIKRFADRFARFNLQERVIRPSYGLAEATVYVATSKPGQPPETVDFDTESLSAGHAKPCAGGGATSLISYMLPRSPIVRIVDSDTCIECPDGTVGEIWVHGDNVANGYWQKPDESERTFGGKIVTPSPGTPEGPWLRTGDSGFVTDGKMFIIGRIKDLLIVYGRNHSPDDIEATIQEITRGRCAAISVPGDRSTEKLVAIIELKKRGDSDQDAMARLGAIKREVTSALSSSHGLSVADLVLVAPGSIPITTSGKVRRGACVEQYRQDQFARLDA
# T2 sequence (P37231 whole entry): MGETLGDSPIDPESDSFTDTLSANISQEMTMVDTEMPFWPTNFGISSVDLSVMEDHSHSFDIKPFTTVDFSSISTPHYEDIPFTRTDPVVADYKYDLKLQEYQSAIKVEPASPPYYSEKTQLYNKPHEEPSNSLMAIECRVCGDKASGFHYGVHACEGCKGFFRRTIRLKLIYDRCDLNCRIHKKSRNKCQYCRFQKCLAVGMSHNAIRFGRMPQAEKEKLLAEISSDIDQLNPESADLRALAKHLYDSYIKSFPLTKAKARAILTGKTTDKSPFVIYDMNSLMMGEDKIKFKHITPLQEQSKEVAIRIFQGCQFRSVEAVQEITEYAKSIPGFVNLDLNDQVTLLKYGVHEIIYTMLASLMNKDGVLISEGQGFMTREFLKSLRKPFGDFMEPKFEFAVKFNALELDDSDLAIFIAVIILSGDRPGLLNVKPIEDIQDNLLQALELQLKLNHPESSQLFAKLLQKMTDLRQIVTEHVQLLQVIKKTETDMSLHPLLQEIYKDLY
# T2 sequence (Q15788 whole entry, further chain): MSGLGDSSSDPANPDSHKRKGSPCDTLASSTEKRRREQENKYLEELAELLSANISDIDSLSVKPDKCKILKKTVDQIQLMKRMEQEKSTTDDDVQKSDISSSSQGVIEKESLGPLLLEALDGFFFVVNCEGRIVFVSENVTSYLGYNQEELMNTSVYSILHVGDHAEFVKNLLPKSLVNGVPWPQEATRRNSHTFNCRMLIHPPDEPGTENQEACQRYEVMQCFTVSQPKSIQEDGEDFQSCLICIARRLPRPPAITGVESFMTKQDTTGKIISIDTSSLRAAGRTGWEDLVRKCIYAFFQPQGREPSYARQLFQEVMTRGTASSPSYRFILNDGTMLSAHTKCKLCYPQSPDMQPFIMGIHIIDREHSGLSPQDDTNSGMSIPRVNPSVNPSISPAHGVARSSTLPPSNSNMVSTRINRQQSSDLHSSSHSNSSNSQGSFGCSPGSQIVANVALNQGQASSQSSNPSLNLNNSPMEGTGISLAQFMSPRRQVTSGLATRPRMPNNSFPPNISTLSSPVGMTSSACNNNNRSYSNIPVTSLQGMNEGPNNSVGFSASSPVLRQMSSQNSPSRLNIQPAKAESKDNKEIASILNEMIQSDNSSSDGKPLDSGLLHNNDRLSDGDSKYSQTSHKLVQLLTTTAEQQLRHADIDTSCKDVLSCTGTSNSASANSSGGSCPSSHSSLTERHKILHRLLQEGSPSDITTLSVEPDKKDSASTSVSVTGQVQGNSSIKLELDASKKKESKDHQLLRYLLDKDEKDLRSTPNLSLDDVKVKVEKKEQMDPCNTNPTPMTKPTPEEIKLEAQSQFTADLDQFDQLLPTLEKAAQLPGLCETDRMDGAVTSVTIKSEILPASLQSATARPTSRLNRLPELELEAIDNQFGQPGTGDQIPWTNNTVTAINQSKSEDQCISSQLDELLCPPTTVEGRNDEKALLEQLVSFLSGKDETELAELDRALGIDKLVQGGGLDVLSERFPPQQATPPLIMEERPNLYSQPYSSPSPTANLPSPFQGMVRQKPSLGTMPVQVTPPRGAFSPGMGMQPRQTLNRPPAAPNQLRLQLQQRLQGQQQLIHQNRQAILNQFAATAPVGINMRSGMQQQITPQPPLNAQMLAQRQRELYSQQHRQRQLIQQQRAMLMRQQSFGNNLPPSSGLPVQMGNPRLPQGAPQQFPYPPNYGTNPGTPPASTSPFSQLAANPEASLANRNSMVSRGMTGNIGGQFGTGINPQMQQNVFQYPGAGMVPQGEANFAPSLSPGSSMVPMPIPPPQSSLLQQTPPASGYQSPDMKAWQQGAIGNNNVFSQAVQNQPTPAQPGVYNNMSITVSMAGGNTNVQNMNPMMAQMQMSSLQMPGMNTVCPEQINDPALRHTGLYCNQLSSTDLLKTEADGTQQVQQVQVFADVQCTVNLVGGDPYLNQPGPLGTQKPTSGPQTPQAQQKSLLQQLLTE
# T3 sequence (P37231 whole entry): as the sequence (P37231 whole entry) above
# T3 sequence (Q9Y6Q9 whole entry, further chain): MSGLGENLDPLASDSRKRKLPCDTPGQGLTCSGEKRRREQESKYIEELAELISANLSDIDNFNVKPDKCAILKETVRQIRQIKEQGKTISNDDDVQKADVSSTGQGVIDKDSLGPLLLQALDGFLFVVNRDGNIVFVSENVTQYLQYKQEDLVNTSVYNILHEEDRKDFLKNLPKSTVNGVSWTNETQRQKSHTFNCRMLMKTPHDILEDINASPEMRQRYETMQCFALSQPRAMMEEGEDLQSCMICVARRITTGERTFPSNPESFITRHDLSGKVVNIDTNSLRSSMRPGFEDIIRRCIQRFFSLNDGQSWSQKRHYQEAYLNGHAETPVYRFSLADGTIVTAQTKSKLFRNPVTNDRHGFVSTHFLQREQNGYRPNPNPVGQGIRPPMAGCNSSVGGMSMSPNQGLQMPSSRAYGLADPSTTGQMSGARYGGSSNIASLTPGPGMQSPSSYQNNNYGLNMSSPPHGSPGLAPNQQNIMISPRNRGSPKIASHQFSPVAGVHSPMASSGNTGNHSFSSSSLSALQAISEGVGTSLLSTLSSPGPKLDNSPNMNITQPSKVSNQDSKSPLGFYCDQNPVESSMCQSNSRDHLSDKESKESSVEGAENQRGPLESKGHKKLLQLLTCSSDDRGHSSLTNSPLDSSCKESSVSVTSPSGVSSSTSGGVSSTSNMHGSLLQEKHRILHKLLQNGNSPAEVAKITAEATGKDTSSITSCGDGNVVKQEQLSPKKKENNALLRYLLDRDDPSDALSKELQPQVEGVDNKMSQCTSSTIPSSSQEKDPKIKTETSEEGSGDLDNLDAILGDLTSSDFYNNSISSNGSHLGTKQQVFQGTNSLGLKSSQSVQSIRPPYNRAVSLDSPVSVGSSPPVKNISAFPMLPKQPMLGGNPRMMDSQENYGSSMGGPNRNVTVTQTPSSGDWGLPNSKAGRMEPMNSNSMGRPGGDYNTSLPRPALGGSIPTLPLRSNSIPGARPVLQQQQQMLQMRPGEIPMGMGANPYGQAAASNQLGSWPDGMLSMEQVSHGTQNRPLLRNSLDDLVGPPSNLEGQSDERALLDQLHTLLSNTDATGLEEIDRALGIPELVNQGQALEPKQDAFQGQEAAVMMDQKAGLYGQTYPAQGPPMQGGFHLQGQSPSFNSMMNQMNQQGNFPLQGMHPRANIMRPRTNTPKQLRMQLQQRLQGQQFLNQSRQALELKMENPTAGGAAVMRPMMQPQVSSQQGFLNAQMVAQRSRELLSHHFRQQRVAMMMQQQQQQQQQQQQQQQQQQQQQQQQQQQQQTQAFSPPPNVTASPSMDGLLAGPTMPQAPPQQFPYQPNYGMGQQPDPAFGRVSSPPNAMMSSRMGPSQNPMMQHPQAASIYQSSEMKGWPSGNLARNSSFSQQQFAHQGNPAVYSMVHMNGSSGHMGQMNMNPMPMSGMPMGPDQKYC
# Chain of 26S proteasome non-ATPase regulatory subunit 14 (O00487 whole entry): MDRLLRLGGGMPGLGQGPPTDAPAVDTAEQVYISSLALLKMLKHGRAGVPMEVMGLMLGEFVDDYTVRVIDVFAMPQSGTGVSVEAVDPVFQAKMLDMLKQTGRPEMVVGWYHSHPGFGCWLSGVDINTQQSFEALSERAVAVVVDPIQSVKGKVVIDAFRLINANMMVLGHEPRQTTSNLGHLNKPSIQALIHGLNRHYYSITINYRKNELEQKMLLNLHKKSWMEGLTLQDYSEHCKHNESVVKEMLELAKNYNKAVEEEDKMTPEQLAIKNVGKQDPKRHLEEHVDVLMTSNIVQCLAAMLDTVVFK
# Chain of 72 kDa type IV collagenase (P08253 whole entry): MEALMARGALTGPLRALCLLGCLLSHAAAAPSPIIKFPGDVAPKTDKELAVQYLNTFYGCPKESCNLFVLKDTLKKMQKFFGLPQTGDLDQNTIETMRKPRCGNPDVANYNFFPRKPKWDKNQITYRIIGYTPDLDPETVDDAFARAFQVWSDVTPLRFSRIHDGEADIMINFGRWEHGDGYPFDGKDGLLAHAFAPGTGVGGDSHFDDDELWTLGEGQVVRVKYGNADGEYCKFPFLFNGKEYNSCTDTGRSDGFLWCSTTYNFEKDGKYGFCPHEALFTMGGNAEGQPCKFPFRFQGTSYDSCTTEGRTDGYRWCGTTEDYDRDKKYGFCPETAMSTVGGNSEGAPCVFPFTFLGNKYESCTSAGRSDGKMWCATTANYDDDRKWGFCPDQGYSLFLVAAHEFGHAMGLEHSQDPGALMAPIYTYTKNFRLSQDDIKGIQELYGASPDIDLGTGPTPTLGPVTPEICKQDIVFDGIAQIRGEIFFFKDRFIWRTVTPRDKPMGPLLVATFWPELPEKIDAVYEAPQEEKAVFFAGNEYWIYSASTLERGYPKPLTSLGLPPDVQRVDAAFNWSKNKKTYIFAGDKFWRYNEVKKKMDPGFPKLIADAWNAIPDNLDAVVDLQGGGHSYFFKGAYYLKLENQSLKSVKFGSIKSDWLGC
smiles,measurement,setting,value
COc1ccc(C(=O)NC2(C(F)(F)F)C(=O)Nc3c2c(=O)[nH]c(=O)n3CCc2ccc(OC)c(OC)c2)cc1 (stereo unspecified),AC50,Escherichia coli,25.4 µM (active)
O=C(O)COc1ccc2c(c1Cl)N=S=N2,EC50,[1],12.5 µM (not active)
same,EC50,[2],9.32 µM (active)
same,EC50,[3],59 µM (not active)
Cc1ccc(C[S+]([O-])Cc2ccc(C(=O)NC3CCCC(C)C3C)o2)cc1 (stereo unspecified),IC50,[4],9.8 µM (active)
same,IC50,[5],7.23 µM (active)
COc1ccc(NS(=O)(=O)c2ccc(C)c(NC(=O)CN3C(=O)NC4(CCCC4)C3=O)c2)cc1,IC50,[6],> 20 µM (inactive)
same,IC50,[7],16.3 µM (active)
same,IC50,Prothrombin,79.2 µM (active)
same,IC50,[8],23.2 µM (active)
same,IC50,Bcl-2-related protein A1,> 20 µM (inactive)
same,IC50,[9],> 100 µM (inactive)
same,IC50,[10],3.31 µM (active)
COc1ccc2oc(C(=O)NCC(c3ccco3)N(C)C)c(C)c2c1 (stereo unspecified),IC50,[11],3.82 µM (active)
CCn1cc(C(=O)O)c(=O)c2cc(F)c(N3CCN(C(S)=Nc4ccc(OC)cc4)CC3)cc21,EC50,Streptococcus,7.71 µM (active)
same,AC50,Escherichia coli,2.52 µM (active)
same,EC50,[12],2.27 µM (active)
CCN(CC)CCCn1c2c(c(SCC(=O)Nc3ccc(OC(F)(F)F)cc3)nc1=O)CCC2,IC50,[4],7.92 µM (active)
same,IC50,[5],6.21 µM (active)
COCC(=O)Nc1nnc(Cc2ccc(OC)cc2)s1,IC50,Estrogen receptor beta,> 50 µM (not active)
same,AC50,Escherichia coli,111 µM (active)
Cn1c(=O)cc(SCC(=O)Nc2ccc3c(c2)OCO3)c2ccccc21,EC50,[1],> 79.4 µM (not active)
same,EC50,[2],> 79.4 µM (inactive)
same,EC50,[3],> 79.4 µM (not active)
NS(=O)(=O)c1ccc(Nc2ccc([N+](=O)[O-])c3nonc23)cc1,IC50,Prothrombin,36.1 µM (active)
same,IC50,[9],> 100 µM (inactive)
same,IC50,[10],39.7 µM (active)
O=C(Cc1ccc(NC(=O)C2CCN(C(=O)C3CCCC3)CC2)cc1)Nc1cccc(C(=O)N2CCCCC2)c1,IC50,[11],29.2 µM (inactive)
Oc1c(Br)cc(Br)cc1/C=N/Cc1ccc(F)cc1,IC50,[4],9.21 µM (active)
same,EC50,[13],38.3 µM (not active)
same,EC50,[14],> 79.4 µM (not active)
same,IC50,[5],3.64 µM (active)
same,EC50,[15],> 79.4 µM (not active)
same,AC50,[16],6.15 µM (active)
same,IC50,H9c2,> 79 µM (inactive)
C[C@@H]1CN([C@@H](C)CO)C(=O)c2cccc(NC(=O)Nc3ccc4c(c3)OCO4)c2O[C@H]1CN(C)Cc1ccc(Oc2ccccc2)cc1,AC50,[17],1.92 µM (active)
C[C@@H]1CN([C@H](C)CO)C(=O)Cc2cc(NS(=O)(=O)c3ccccc3)ccc2O[C@H]1CN(C)Cc1ccc(Cl)c(Cl)c1,AC50,[17],3.13 µM (active)
Cc1nc(N)sc1C(=O)N/N=C/c1c[nH]c2ccccc12,IC50,[6],1.25 µM (active)
same,IC50,[7],1.33 µM (active)
same,AC50,[18],55.1 µM (active)
same,IC50,Bcl-2-related protein A1,> 20 µM (inactive)
